Data taken from patent US10081662B2, “Modified relaxin B chain peptides” (The Florey Institute of Neuroscience and Mental Health, priority 2014, dated 2018).
Peptide text beside a SMILES is read from it.

Experiments:
[1] = test system: ERK1/2; experiment: ERK1/2 phosphorylation (AlphaScreen SureFire) in rat renal myofibroblasts endogenously expressing RXFP1; assay type: cell-based
Experimental: The inventors then tested the single chain B7-33 C11.23S relaxin-2 peptide for its ability to signal via different pathways, cAMP (see Example 2) and pERK.1/2 on HEK-293T (cells stably expressing RXFP1) and myofibroblast cells (cells endogenously expressing RXFP1) The cAMP assay was conducted as described in Example 2. Phosphorylation of ERK1/2 was determined using AlphaScreen SureFire® assay which is a proprietary, non-radioactive and non-Western proximity assay that relies on singlet oxygen energy transfer (PerkinElmer Inc.). Rat renal fibroblasts (that endogenously express RXFP1 receptor) were seeded into a 96-well plate at a density of 40,000 cells per well and incubated overnight in complete media to allow cell adhesion. Cells were then serum-starved for 4-6 hours followed by native H2 relaxin (100 nM) or B7-33 C11.23S peptide (100 nM) treatment for periods of up to 20 minutes and ERK1/2 activation was quantified using the phospho-ERK1/2 Surefire AlphaScreen kit.

[2] = test system: MMP-2; experiment: MMP-2 expression by gelatin zymography in rat renal myofibroblasts; assay type: cell-based; details: 16.80 nM, gelatin zymography and densitometry
Experimental: Renal myofibroblast cells natively expressing human RXFP1 were plated out onto 12-well plates with a density of 50 000 cells per well. Cells were treated with 16.8 nM H2-relaxin and 16.80 nM B7-33 C11.23S. Expression of basal MMP-2 levels was monitored with no treatment applied to wells (control). Each treatment was carried out in duplicates (n=5), for each replicate in Dulbecco's modified Eagle's medium (DMEM) containing 10% fetal calf serum, 2.2% HEPES buffer, 1% L-glutamine and 2% penicillin/strepticillin. The cells were incubated over 48 hrs in a humidified chamber with 5% CO2 at 37.8° C. temperature. Following this, media was aspirated off and experiment continued in serum free media (DMEM containing 2.2% HEPES buffer, 1% L-glutamine, 2% penicillin/strepicillin and 2% lactalbumin hydrolysate) for a further 24 hours in a humidified chamber with 5% CO2 at 37.8° C. […]. Media were then collected from various treatments and gel zymography was carried out.
For determination of MMP-2 expression within various treatments, zymographic assays of gelatinases were carried out. […] (0.05M Tris-HCl pH 7.4, 0.01M CaCl2, 5% Triton X-100, 0.02% sodium azide, 1 μM ZnCl2. The gels were then stained with 0.1% Cootnassie blue containing 40% 2-propanol and destained with 7% acetic acid before analysed by ImageJ software.

[3] = molecular target: T1, RXFP1 (Homo sapiens, UniProt Q9HBX9); experiment: Eu-labelled H2 relaxin competition binding, whole HEK-293T cells stably transfected with RXFP1; details: RXFP1-expressing cells, Eu-labelled H2 relaxin; FIG. 2A
T1 construct: expressed in transfected cells; host or cells: HEK-293T
T1 sequence (Q9HBX9 1-757): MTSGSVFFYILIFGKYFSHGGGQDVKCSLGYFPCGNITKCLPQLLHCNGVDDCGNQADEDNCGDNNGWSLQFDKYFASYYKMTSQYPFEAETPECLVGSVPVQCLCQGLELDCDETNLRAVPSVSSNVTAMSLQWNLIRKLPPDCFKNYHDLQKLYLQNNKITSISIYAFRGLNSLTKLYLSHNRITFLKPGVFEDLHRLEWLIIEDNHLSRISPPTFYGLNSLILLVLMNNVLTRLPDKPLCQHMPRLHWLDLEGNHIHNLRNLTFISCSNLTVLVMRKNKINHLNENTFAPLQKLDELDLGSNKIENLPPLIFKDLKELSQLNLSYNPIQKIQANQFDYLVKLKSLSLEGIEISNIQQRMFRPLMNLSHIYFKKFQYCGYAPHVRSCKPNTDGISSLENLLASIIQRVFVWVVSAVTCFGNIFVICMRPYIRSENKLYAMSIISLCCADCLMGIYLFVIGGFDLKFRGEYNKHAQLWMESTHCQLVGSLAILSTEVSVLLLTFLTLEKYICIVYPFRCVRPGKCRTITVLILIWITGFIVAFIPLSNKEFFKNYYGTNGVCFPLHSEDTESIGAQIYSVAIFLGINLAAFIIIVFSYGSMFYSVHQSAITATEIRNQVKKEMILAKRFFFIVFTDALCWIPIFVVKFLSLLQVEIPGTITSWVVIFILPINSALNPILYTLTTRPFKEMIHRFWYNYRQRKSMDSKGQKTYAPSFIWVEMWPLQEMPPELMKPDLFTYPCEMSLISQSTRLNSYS

Q: Which “pERK potency in rat renal myofibroblast (in words)” value ([1]; rat renal myofibroblasts natively expressing RXFP1, FIG. 4) does the source give for `CC[C@H](C)[C@H](NC(=O)[C@H](C)NC(=O)[C@@H](NC(=O)[C@H](CCC(N)=O)NC(=O)[C@H](C)NC(=O)[C@H](CCCNC(=N)N)NC(=O)[C@@H](NC(=O)[C@H](CC(C)C)NC(=O)[C@H](CCC(=O)O)NC(=O)[C@H](CCCNC(=N)N)NC(=O)CNC(=O)[C@H](CO)NC(=O)[C@H](CC(C)C)NC(=O)[C@H](CCCCN)NC(=O)[C@@H](NC(=O)[C@@H](N)C(C)C)[C@@H](C)CC)C(C)C)[C@@H](C)CC)C(=O)N[C@@H](CO)C(=O)NCC(=O)N[C@@H](CCSC)C(=O)N[C@@H](CO)C(=O)N[C@H](C(=O)N[C@@H](Cc1c[nH]c2ccccc12)C(=O)N[C@@H](CO)C(=O)N[C@@H](CCCCN)C(=O)N[C@@H](CCCNC(=N)N)C(=O)N[C@@H](CO)C(=O)N[C@@H](CC(C)C)C(N)=O)[C@@H](C)O` [B7-33 C11.23S] (H-VIKLSGRELVRAQIAISGMSTWSKRSL-NH2) here?
A: very high pERK potency

Q: What about the “Time of peak ERK1/2 activation after peptide treatment” value ([1]; rat renal myofibroblasts, 100 nM peptide) of the same molecule?
A: 5 min

Q: And the “ERK1/2 activation, level of efficacy” value ([1]; rat renal myofibroblasts, 100 nM peptide, up to 20 minutes, FIG. 4)?
A: slightly higher level of efficacy as H2 relaxin

Q: What about the “Induction of MMP-2 expression” value [2] of the same molecule?
A: levels similar to those induced by the native H2 relaxin

Q: What about the “Binding to RXFP1 (in words)” value [3] of the same molecule?
A: binds RXFP1, but with lower affinity than H2 relaxin
